The source of these data is the Deep4Chem optical property database.

A short description of the series: solvent given as SMILES.

“And” between values parts separate entries of the source, which are not always exact repeats. Equal values may be shown once.

Consider `Nc1ccc2c(c1)C(=O)c1ccc(N)cc1C2=O`, for which the fluorescence lifetime by setting is: (in CC#N) 1.85 ns; (in CC(C)O) 0.6 ns; (in CCO) 0.47 ns; (in CCOC(C)=O) 2.01 ns; (in CO) 0.34 ns.
`C[n+]1ccc2c(ccc3c[n+](C)ccc32)c1` registered a fluorescence lifetime (in CC#N) of 6.6 ns.
The molecule `Cc1ccc(/C2=c3\cc/c(o3)=C(\c3ccc(C)cc3)c3ccc([nH]3)-c3ccc4n3[P-](=O)(=O)[N+]3=C(C=CC3=C4c3ccco3)c3ccc2[nH]3)cc1` had a fluorescence lifetime (in ClC(Cl)Cl) of 4.2 ns.
As to `COC(=O)[C@@]12N=N[C@@](C(=O)OC)(C3[C@H]1C3(C)C)[C@H]1[C@@H]2C1(C)C` (stereo partly drawn), the fluorescence lifetime (in CC#N) came out at 101 ns.
Under “in ClCCl”, `c1cc2c3c(c1)ccc1[n+]3[B-]3(Oc4cccc5ccc6[n+](c45)[B-](O2)(O3)n2c-6cc3c4ccccc4c4ccccc4c32)n2c-1cc1c3ccccc3c3ccccc3c12` came in with a fluorescence lifetime of 3.65 ns.
`Cc1nc(-c2cc(C(F)(F)F)ccc2O)n2c1CCCC2` registered a fluorescence lifetime (in ClCCl) of 3.7 ns.
Consider `N#C/C(=C\c1ccc(C#N)cc1)c1nc(-c2ccccc2)cs1`, for which the fluorescence lifetime (in CC#N) came out at 3.4 ns.
In turn, `C(=C\c1nc2c3ccccc3c3ccccc3c2o1)/c1ccccc1` yielded a fluorescence lifetime (in CC#N) of 1.83 ns.
Where the note is “in C1COCCO1”, `c1ccc(-c2nc(-c3nc(-c4ccccc4)c(-c4ccccc4)o3)oc2-c2ccccc2)cc1` had a fluorescence lifetime of 1.22 ns.
In the case of `Cn1c(-c2ccc(-c3nc(-c4ccccc4)c(-c4ccccc4)n3C)cc2)nc(-c2ccccc2)c1-c1ccccc1`, the fluorescence lifetime (in CC#N) is 1.24 ns and 1.1 ns.
Regarding `CCCCN1C(=O)c2cc(Br)c3c4c(Br)c(Br)c5c6c(cc(Br)c(c7c(Br)c(Br)c(c2c37)C1=O)c64)C(=O)N(CCCC)C5=O`, under “in ClC(Cl)Cl”, the fluorescence lifetime is 1.1 ns.
As for `CN(C)c1ccc2nc(-c3ccc(C(=O)OC[C@H](NC(=O)OC(C)(C)C)C(=O)OCc4ccccc4)cc3)sc2c1`, the fluorescence lifetime (in C1CCCCC1) was 2.4 ns.
As to `CC[n+]1c(C=C2C(=O)C(C=C3N(C)c4ccc(Cl)cc4C3(C)C)=C2[O-])[se]c2ccccc21`, the fluorescence lifetime was 0.43 ns (in CO) and 2.14 ns (in ClC(Cl)Cl).
For the molecule `Cc1cccc(-c2c3ccccc3cc3ccccc23)n1`, the fluorescence lifetime (in ClCCl) is 5.7 ns.
`N#Cc1cc2ccccc2[nH]1`: the fluorescence lifetime by setting is: (in C1CCOC1) 2.9 ns; (in C1COCCO1) 2.9 ns; (in CC#N) 0.9 ns; (in CS(C)=O) 0.4 ns.
Molecule `Cc1ccccc1` yielded a fluorescence lifetime (in C1CCCCC1) of 50 ns.
In the case of `CCN(CC)c1ccc2c(c1)oc(=O)c1c(-c3ccccc3C(=O)O)c3ccc(=[N+](CC)CC)cc-3oc12`, the fluorescence lifetime by setting is: (in CCO) 2.29 ns; (in ClC(Cl)Cl) 4.16 ns; (in O) 0.31 ns.
Molecule `O=C(O)c1ccc2ccc3cccc4ccc1c2c34` had a fluorescence lifetime (in C1CCOC1) of 10.6 ns; a fluorescence lifetime (in CC#N) of 9 ns; a fluorescence lifetime (in CCCCCC) of 8.68 ns; a fluorescence lifetime (in CCO) of 7.78 ns; a fluorescence lifetime (in CN(C)C=O) of 8.43 ns; a fluorescence lifetime (in CO) of 15.5 ns. For the same molecule, the fluorescence lifetime turned out to be 7.14 ns (in Cc1ccccc1) and 5.12 ns (in ClCCl).
Where the note is “in ClC(Cl)Cl”, `CCCCCCN1C(=O)c2cccc3cc(/N=C\c4c[nH]c5c4ccc4ccccc45)cc(c23)C1=O` came in with a fluorescence lifetime of 11.6 ns.
In turn, `Cc1cc(C)n2c1C=C1c3ccccc3C(c3c[nH]c4ccccc34)=[N+]1[B-]2(F)F` had a fluorescence lifetime (in ClCCl) of 6.42 ns.
As for `CCCCCCN(CCCCCC)c1ccc(C#Cc2ccc(-c3ccc(C#Cc4ccc(N(CCCCCC)CCCCCC)cc4)cc3)cc2)cc1`, the fluorescence lifetime (in Cc1ccccc1) came to 1 ns.
Under “in ClCCl”, `CC(C)(C)c1ccc(-c2nc3c4ccc(-c5cccc6ccccc56)cc4c4cc(-c5cccc6ccccc56)ccc4c3n2-c2ccc(C(C)(C)C)cc2)cc1` had a fluorescence lifetime of 7.4 ns.
`COC(=O)C(NC(=O)OC(C)(C)C)c1ccc2oc(-c3cc(OC)ccc3OC)nc2c1` (stereo not drawn): the fluorescence lifetime runs as follows: (in CC1CCCCC1) 1.93 ns; (in CC#N) 2.03 ns; (in CO) 2.03 ns.
Turning to `c1ccc2c(c1)c1ccccc1n2-c1ccc2cc(-c3ccc(-c4ccc(-c5cc6ccc(-n7c8ccccc8c8ccccc87)cc6o5)cc4)cc3)oc2c1`, the fluorescence lifetime runs as follows: (in Cc1ccccc1) 0.97 ns; (in c1ccc2c(c1)c1ccccc1n2-c1ccc(-c2ccc(-n3c4ccccc4c4ccccc43)cc2)cc1) 1.5 ns.
For `c1ccc(-c2nn(-c3ccccc3)c3nc4ccc(-n5c6ccccc6c6ccccc65)cc4cc23)cc1`, the fluorescence lifetime runs as follows: (in C1CCCCC1) 17.6 ns; (in C1CCOC1) 19.1 ns; (in CC#N) 21.8 ns; (in CC(C)=O) 21.6 ns; (in CCCCCl) 19.1 ns; (in CCCCOCCCC) 19.4 ns. Also, the fluorescence lifetime (in CN(C)C=O) was found to be 20.2 ns.
As for `CCCCOc1ccc(-c2cc3c(o2)c(-c2ccc(OCCCC)cc2)c2n3[B-](F)(F)[N+]3=Cc4c(-c5ccc(OCCCC)cc5)c5oc(-c6ccc(OCCCC)cc6)cc5n4[B-](F)(F)[N+]3=C2)cc1`, the fluorescence lifetime (in ClCCl) amounted to 2.59 ns.
Take `Nc1ccc2c3cccc4cccc(c5cccc1c52)c43`: the fluorescence lifetime is, setting by setting: (in C1CCCCC1) 5.3 ns; (in CC#N) 5.5 ns; (in CCOC(C)=O) 5.1 ns; (in CO) 5 ns; (in CS(C)=O) 5.6 ns; (in ClCCl) 6.8 ns.
In turn, `COC(=O)/C(C#N)=c1\s/c(=c2/s/c(=C(/C#N)C(=O)OC)c3cc(-c4ccc(OC)cc4)sc23)c2sc(-c3ccc(OC)cc3)cc12` gave a fluorescence lifetime (in Cc1ccccc1) of 4.36 ns.
For the molecule `Cc1ccc2nc3[nH]c(=O)[nH]c(=O)c3nc2c1`, the fluorescence lifetime runs as follows: (in CC#N) 0.6 ns; (in ClCCCl) 0.49 ns.
For `CCCCCCCCCCCCOc1cc2cc(N(C)C)ccc2cc1C#N`, the fluorescence lifetime (in CS(C)=O) stood at 5.5 ns.
With `CC1=C2c3ccccc3C(c3[nH]c(C)cc3C)=[N+]2[B-](F)(F)n2c(C)cc(C)c21`, where the note is “in ClCCl”, the fluorescence lifetime was 7.3 ns.
In turn, `Cc1ccc2cc(C)ccc2c1` yielded a fluorescence lifetime (in C1CCCCC1) of 64 ns.
On to `COc1cc(-c2cc(-c3ccc(C)cc3)nc3c(C#N)c(N4CCCC4)nc(N)c23)cc(OC)c1OC`, for which the fluorescence lifetime reads like this: (in CC#N) 10.7 ns; (in CC(C)=O) 10.4 ns; (in CC(C)O) 10.3 ns; (in CO) 8.46 ns; (in ClC(Cl)Cl) 12.8 ns; (in ClCCl) 12.6 ns. Where the note is “in c1ccccc1”, this molecule yielded a fluorescence lifetime of 12.5 ns.
Turning to `Cc1ccc(-c2cc(C)[o+]c(C)c2)cc1`, the fluorescence lifetime reads like this: (in CC#N) 8.7 ns; (in ClCCl) 3.3 ns.
Molecule `COC(=O)/C(C#N)=c1\s/c(=c2/s/c(=C(/C#N)C(=O)OC)c3cc(-c4ccc(C(F)(F)F)cc4)sc23)c2sc(-c3ccc(C(F)(F)F)cc3)cc12` displayed a fluorescence lifetime (in Cc1ccccc1) of 2.32 ns.
`CC1(C)c2ccccc2N(c2cc[n+]3c(c2)-c2ccccc2O[B-]3(F)F)c2ccccc21`: the fluorescence lifetime (in O=P(c1ccccc1)(c1ccccc1)c1ccccc1Oc1ccccc1P(=O)(c1ccccc1)c1ccccc1) is 6.2 ns.
On to `O=[N+]([O-])c1ccc(-c2nc3c(c4c2-c2ccccc2CC4)-c2ccccc2CC3)cc1`, for which the fluorescence lifetime by setting is: (in CC#N) 2.05 ns; (in CS(C)=O) 1.09 ns; (in ClCCl) 1.13 ns.
In turn, `COc1ccc(N(c2ccc(OC)cc2)c2ccc3ccc4c(B(c5c(C)cc(C)cc5C)c5c(C)cc(C)cc5C)ccc5ccc2c3c54)cc1` registered a fluorescence lifetime (in C1CCOC1) of 3.2 ns; a fluorescence lifetime (in CC(C)=O) of 0.7 ns; a fluorescence lifetime (in CCCCCC) of 6.2 ns; a fluorescence lifetime (in Cc1ccccc1) of 8.2 ns; a fluorescence lifetime (in ClC(Cl)Cl) of 8.5 ns; a fluorescence lifetime (in ClCCl) of 3.9 ns.
As for `COc1ccc(-c2nc3c(ccc4ccccc43)oc2=O)cc1`, the fluorescence lifetime (in c1ccccc1) is 2.1 ns.
For the molecule `COc1ccccc1C1=C2C(C)=CC(C)=[N+]2[B-](F)(F)n2c(C)cc(C)c21`, the fluorescence lifetime (in C1CCOC1) stood at 6.42 ns and the fluorescence lifetime (in CCCCCC) stood at 5.78 ns.
In turn, `CCOC(=O)/N=c1/oc2cc(N(CC)CC)ccc2cc1C#N` gave a fluorescence lifetime (in ClCCl) of 3.6 ns.
Consider `CC1(C)c2ccccc2N(c2ccc(-c3cc(-c4ccccc4)nc(-c4ccccc4)n3)cc2)c2ccccc21`, for which the fluorescence lifetime reads like this: (in Cc1ccccc1) 4.23 ns; (in ClCCl) 25 ns.
As to `COc1cc2c(cc1-c1ccc(N(C)C)cc1)Cc1c3c(c4c(c1-2)-c1cc(OC)c(-c2ccc(N(C)C)cc2)cc1C4)C(=O)N(CCC(C)C)C3=O`, the fluorescence lifetime (in C1CCOC1) came out at 1.01 ns.
As to `N#Cc1nc2c3ccc(-c4ccc(-n5c6ccccc6c6ccccc65)cc4)cc3c3cc(-c4ccc(-n5c6ccccc6c6ccccc65)cc4)ccc3c2nc1C#N`, the fluorescence lifetime (in O=P(c1ccccc1)(c1ccccc1)c1cccc(-c2cc(-n3c4ccccc4c4ccccc43)cc(-n3c4ccccc4c4ccccc43)c2)n1) came out at 40.6 ns.
As to `O=S(=O)(c1ccc(-c2ccc(-n3c4ccccc4c4ccccc43)cc2)cc1)c1ccc(-c2ccc(-n3c4ccccc4c4ccccc43)cc2)cc1`, the fluorescence lifetime (in Cc1ccccc1) was 2.55 ns.
In the case of `N#Cc1cnc(-c2c3ccccc3c(-c3ccccc3)c3ccccc23)nc1`, the fluorescence lifetime is, setting by setting: (in CCO) 0.25 ns; (in ClCCl) 0.4 ns.
For `COC(=O)C(NC(=O)OC(C)(C)C)c1ccc2oc(-c3ccc(O)cc3O)nc2c1` (stereo not drawn), the fluorescence lifetime runs as follows: (in CC1CCCCC1) 0.3 ns; (in CC#N) 1.44 ns; (in CO) 1.33 ns.
